The values below are quoted from earlier work in patent publication US10543503B1, “Methods of delivery of encapsulated perfluorocarbon taggants” (Copilot Ventures Fund III LLC, priority 2011, dated 2020).

The subject of series [1] is cytochrome P-450 IIA1 and IIA2 (a.k.a. cytochrome P450b and cytochrome P450e). To be noted: rats, following PFD treatment.
Series [2] has as its system cytochrome P-450 IA1 and IA1. To be noted: rats, following PFD treatment; enzymes induced by 3-methylcholanthrene-type inducers.
Another series deals with cytochrome P450 IV. Conditions: rats, following PFD treatment; enzyme induced by fatty acids and perfluoronated fatty acids.
The next series concerns cytochrome P-450. Conditions: PFD given to rats; hepatic metabolizing enzymes.
The test system of the next series is aldrin-epoxidase. Conditions: rats, following PFD treatment.
Series [3] concerns benzphetamine-N-demethylase. To be noted: rats, following PFD treatment.

Take `FC1(F)C(F)(F)C(F)(F)C2(F)C(F)(F)C(F)(F)C(F)(F)C(F)(F)C2(F)C1(F)F` (stereo not drawn) [PFD, perfluorodecalin]: the “increase of activities of cytochrome P-450 IIA1 and IIA2” value in series [1] was “approximately two-fold”. In addition, the “activities of cytochrome P-450 IA1 and IA1” value in series [2] is “unaffected”. The “activity of cytochrome P450 IV” value with cytochrome P450 IV was “unaffected”. The “induction of cytochrome P-450” value with cytochrome P-450 is “induce cytochrome P-450 in a manner similar to phenobarbital”. Moreover, in the series with aldrin-epoxidase, the activity of aldrin-epoxidase result is recorded as “increased”. In addition, in series [3], the “activity of benzphetamine-N-demethylase” value is on record as “increased”.
